This passage reports melting point results from a melting point compilation (Tetko et al.; mined from patent text by program, amines drawn as free bases though some values may be those of a salt).

Broadly, the melting point is the temperature, or range, at which the solid turns liquid.

In the case of `Fc1ccc(Nc2nnc(Cc3ccncc3)c3ccccc23)cc1`, the melting point was 129 to 131 °C.
Next, `CCOC(=O)C=CC(=CN)C(=O)OCC`: 109 °C; `CCNCc1cnc2c(C)c(NC(=O)c3ccc(OC[C@@H]4CCCO4)cc3)ccc2c1`: 149 to 151 °C.
With `OC(c1ccccc1)c1cc2ccnc(N(Cc3ccccc3)Cc3ccccc3)c2[nH]1` (stereo not drawn) the figure was 53 to 61 °C.
Turning to `CN1CCC(O)(c2cccc(F)c2F)C1` (single isomer, unassigned; (-)), the melting point lay within 131 to 132 °C.
Next, `CCOC(=O)N1CCN(c2ccc(Br)cn2)CC1`: 68 °C.
With `COc1ccc2ncc(CO)cc2c1` the figure was 92 to 93 °C; with `O=C(Nc1ccc(-n2nc(-c3ccoc3)cc2Cl)cc1)c1ccncc1F`, 165 to 166 °C.
Next, `CC(C)Oc1ccc(CCCOc2cc(CCC(=O)O)n(C)n2)c(Oc2ncc(Cl)cc2Cl)c1`: 77 to 78 °C.
Take `Cn1c(=O)c(C#N)c(N2CCNCC2)c2cc(F)ccc21`: the melting point stood at 211 °C.
Next, `CN1CCC(NC(c2cccc(O)c2)c2nc3ccccc3[nH]2)CC1` (stereo not drawn): 230 °C.
With `CC(C)(C)c1cccc(S(=O)(=O)n2c(C(C)(O)c3ccc(C(=O)O)s3)cc3cc(C(F)(F)F)ccc32)c1` (stereo not drawn) the figure was 80 °C.
Next, `CC(Cl)c1nc2c(c(=O)n(C)c(=O)n2C)n1C` (stereo not drawn): 190 °C.
In turn, `C[C@@H](N1CCN(c2ccc(OCC(F)(F)F)cc2)C1=O)[C@@]1(c2ccc(F)cc2F)CO1` gave a melting point of 131 to 132 °C.
Next, `Cc1cc(C)c2ncc(N(Cc3cc(C(C)(C)C)c(O)c(C(C)(C)C)c3)C(=O)Nc3ccc(F)cc3F)c(-c3ccccc3Cl)c2c1`: 124 to 126 °C.
With `CCOC(=O)C(=NO)c1ccc(OC)cc1` the figure was 81 to 82 °C; with `CCOC(=O)c1nn(-c2c(Cl)cc(C(F)(F)F)cc2Cl)cc1OC(F)(F)C(F)Cl` (racemic), 105 to 106 °C; with `CN1C2=C(C(=O)OC2)C(c2ccncc2)c2cc3c(cc21)OCO3` (stereo not drawn), 255 °C.
With `Cc1ccc(-n2c(-c3ccc(C=Cc4ccccc4)cc3)ccc2-c2ccc(C=Cc3ccccc3)cc2)cc1` the figure was 297 to 298 °C; with `CONC(=O)C(Cl)=Cc1cc(-n2c(=O)cc(C(F)(F)F)n(C)c2=O)ccc1Cl`, 136 to 141 °C.
As to `BrCCCCOc1ccc2c(c1)OCO2`, the melting point is 52 to 54 °C.
Next, `O=c1cc(O)nc2cc(C(c3c(F)ccc(F)c3F)S(=O)(=O)CCC(F)(F)F)c(Cl)cn12` (stereo not drawn): 264 °C; `CCN1c2ncccc2C(=O)N(C)c2ccc(-c3c[nH]c(C#N)c3)nc21`: 268 to 269 °C.
With `COc1c(Cc2ccccc2)cc(C(N)=O)c2ccccc12`, the melting point was 199 to 201 °C.
With `CC(=O)N1CCN(c2nc(N)ccc2[N+](=O)[O-])CC1`, the melting point lay within 202 to 203 °C.
Turning to `Clc1cc(CCc2ccccn2)c2oc(-c3nccc4ccccc34)nc2c1`, the melting point was in the range of 142 to 143 °C.
With `CCC(CC)(CCc1ccc(Cl)cc1)NC(=O)n1nc(N(C)C)n(N=C(C)CC(C)C)c1=O` the figure was 121 °C; with `CC1(C)CC(OC(=O)CCl)CC(C)(C)N1OC1CCCCC1`, 62 to 64 °C; with `CNC(=S)C1(c2cccnc2)CCCCC1=CCOc1ccc([N+](=O)[O-])cc1` (stereo not drawn), 201 to 202 °C.
With `Cc1nc(-n2ccc(OCc3cccnc3)cc2=O)sc1C(=O)NCc1ccccc1` the figure was 214 to 216 °C; with `CC(C)Nc1ccc(-c2ncc(C(F)(F)F)cc2Cl)cc1N`, 116 to 117 °C; with `CC(C)(C)OC(=O)N(Cc1ccccc1)S(N)(=O)=O`, 127 °C.
Next, `Cc1cccc2nc(-c3c(F)cccc3F)[nH]c12`: 148 °C; `COc1cc(F)c2c(c1)Oc1ccccc1S2(=O)=O`: 226 to 230 °C; `O=C1c2ccccc2C(=O)N1CCCS(=O)(=O)c1ccc(Cl)cc1`: 188 °C.
Molecule `CC(=O)OCC(CO)CCn1cnc2c(=O)[nH]c(N)nc21` (stereo not drawn) registered a melting point of 194 to 200 °C.
Regarding `COC(=O)c1nn(-c2ccc(Cl)cc2Cl)c(-c2ccc(Cl)cc2)c1CBr`, the melting point was found to be 145 °C.
The molecule `O=C(NS(=O)(=O)c1ncccc1C(F)(F)F)Oc1ccccc1` showed a melting point of 130 to 134 °C.
Next, `CC1=C(C#N)C(c2ccccc2C(F)(F)F)c2c(ccnc2OC(C)C)N1` (stereo not drawn): 207 to 209 °C.
Next, `CN1C(=O)CC(c2ccc(O)cc2)C1C(O)c1ccc(-c2ccccc2)s1` (stereo not drawn): 248 to 249 °C.
With `CC(C)n1nc(-c2cc(-c3ccccc3)c(N)nc2-c2ccccc2)ccc1=O` the figure was 208 to 209 °C; with `O=S(=O)(c1cccc(-c2cc(-c3nc(-c4ccc(C(F)(F)F)cc4)cc(C(F)(F)F)n3)ccn2)c1)N1CCOCC1`, 202 °C.
As for `CCOC(=O)N1CCCc2nc3cc(C)ccc3c(C)c2C1`, the melting point is 132 °C.
In turn, `N#Cc1ccccc1OCCCN1CCC(NC(=O)Cc2ccccc2)CC1` showed a melting point of 105 to 107 °C.
`Oc1ccc(-c2nc(-c3cccs3)c[nH]2)cc1Br`: the melting point lay within 125 to 130 °C.
With `CN1CC2c3cccn3Cc3ccccc3N2C(=O)C1=O` (stereo not drawn) the figure was 178 to 179 °C.
`NCCCNC(=O)CCn1cnc2c(=O)[nH]cnc21` showed a melting point of 172 to 175 °C.
With `N#Cc1ccc(N2CCN(Cc3cnc4c(c3)NC(=O)[C@@H]3CCCN43)CC2)cc1` the figure was 252 °C; with `O=C(Cc1c2c(nn1-c1ccccc1)c(=O)[nH]c1ccccc12)N1CCN(Cc2ccccc2)CC1`, 283 to 285 °C.
Next, `COc1ccc(-c2cc(=S)n(Cc3ccccc3)nc2-c2ccc(OC)cc2)cc1`: 135 to 149 °C; `C=C1SC(=S)N(c2ccc3cc(-c4ccc(OC)c(C(C)(C)C)c4)ccc3c2)C1=O`: 281 to 284 °C; `N#Cc1ccc(-c2cc3ccc(C#N)cc3[nH]2)cc1`: 270 to 275 °C.
With `Nc1ccc(CN2CCN(Cc3ccc(N)cc3)C(=O)C2=O)cc1` the figure was 193 to 194 °C; with `CC(CCC=O)C1CC=C2C3=C(CCC21C)C1(C)CCC(=O)C(C)(C)C1CC3` (stereo not drawn), 96.5 to 97 °C.
Take `CCOC(=O)c1cccc(N)c1NCc1ccc(-c2ccccc2C#N)cc1`: the melting point lay in the range of 104 to 105 °C.
With `O=c1c2ccccc2nc(-c2cc(-c3ccc(Cl)cc3)c(N3CCOCC3)s2)n1-c1ccccc1` the figure was 229 to 230 °C; with `COc1ccc2c(c1)N(C)C(=O)C2C` (stereo not drawn), 44 to 46 °C.
Next, `Cc1ccc(Sc2cncc3sc(C=NOCC(=O)O)cc23)cc1`: 227 to 230 °C; `COC[C@H](C)NC(=O)c1c[nH]c2ncc(-c3nn(C)c4cc(F)c(F)cc34)nc12`: 295 to 297 °C; `Oc1ccccc1-c1nnco1`: 112 to 113 °C.
Next, `CN(Cc1cc(C(F)(F)F)cc(C(F)(F)F)c1)C(=O)c1nc(N)ncc1-c1ccccc1`: 182 °C.
`Cc1nc2c(N)nc3ccccc3c2n1CCCNC(=O)c1ccccc1` returned a melting point of 230 to 231 °C.
Consider `COc1ccc2c(c1)OCC(Cc1cccnc1)C2=O` (stereo not drawn), for which the melting point was in the range of 95 to 99 °C.
In the case of `CCN1CC=CC2=C1N1CN(OC)C=C1N=N2`, the melting point was in the range of 167 to 168 °C.
With `Cc1sc2cc3ccccc3c(-c3ccc(O)c(C4CCCC4)c3)c2c1C` the figure was 156 to 158 °C.
Next, `CN(C(=O)CCSC(c1ccccc1)(c1ccccc1)c1ccccc1)c1cn(-c2cccnc2)nc1Cl`: 62 to 64 °C; `Cc1nc2c(cc1C(=O)NC(=N)N)C(O)CCCC2` (stereo not drawn): 225 to 226 °C.
For `Nc1ncnc2nsnc12`, the melting point was 247 to 249 °C.
Next, `O=S(=O)(c1ccccc1)n1c2ccc(Br)cc2c2cc(Cl)cnc21`: 242 °C.
With `Cc1ccc(S(=O)(=O)N2CCN(C(=O)c3cc4cc(O)ccc4cc3O)CC2)cc1` the figure was 135 to 137 °C.
In turn, `COc1ccnc(NC(=O)NS(=O)(=O)c2ccccc2-c2nn(C)c(=O)o2)n1` returned a melting point of 223 to 224 °C.
With `O=C(CSc1n[nH]c(-c2ccco2)n1)C12CC3CC(CC(C3)C1)C2` the figure was 177 to 178 °C.
With `CCCCCC(CC(=O)Nc1cc(CNC(N)=O)ccc1C(C)(C)C)c1ccc(OC)cc1OC` (stereo not drawn) the figure was 112 to 113 °C.
Next, `Clc1ccc2c(CCN3CCN(c4cccc5c4OCCO5)CC3)c[nH]c2c1`: 215 to 216 °C; `CCOC(=O)c1ccc(OCc2ccc(Cl)cc2)cc1`: 83 to 84 °C; `COC(=O)Cn1sc2ccccc2c1=O`: 89 to 91 °C.
Molecule `CC(C)c1cc(C(C)C)c(CC(=O)NS(=O)(=O)Oc2c(C(C)C)cc(NS(C)(=O)=O)cc2C(C)C)c(C(C)C)c1` gave a melting point of 164 to 166 °C.
`O=[N+]([O-])c1cccc(-c2nc3ccc(OC(F)(F)F)cc3[nH]2)c1` returned a melting point of 193 to 195 °C.
With `CCC(O)(c1ccsc1)c1oc(C)nc1C` (stereo not drawn) the figure was 81 to 83 °C; with `C=CC(=O)N(C)CCCCCCCCCCCOc1ccc(C(=O)O)c(C(=O)O)c1`, 95 °C; with `OC1CCC(Nc2nc(Cl)nc(Cl)n2)CC1` (stereo not drawn), 120 °C.
Next, `OC1CSC(Oc2ccc(-c3cncnc3)nc2)C(O)C1O` (stereo not drawn): 188 °C; `O=C(O)C1CN(c2ccc(-c3noc(CCl)n3)cc2)C(=O)O1` (stereo not drawn): 178 to 181 °C; `O=C(CCCl)Nc1ccc(C(=O)O)cc1`: 225 °C.
With `O=C(O)CCCOc1cccc2occc12` the figure was 91 to 93 °C; with `Cc1cccc(C#CC2=CC(=NO)CCC2)n1`, 166 to 168 °C; with `CCOC(=O)c1ccc(-c2ccc(Cl)cc2)[nH]1`, 148 °C.
Turning to `CN(C)c1ccc(C(=O)N2CCC(c3[nH]nc4c3C(=O)c3c(NC(=O)NN5CCOCC5)cccc3-4)CC2)cc1`, the melting point was in the range of 189 to 191 °C.
